Test results: patent EP4786454A1, “HETEROARYL DERIVATIVE AND USE THEREOF” (priority 2023, dated 2025)
Like-named read-outs stand apart in the source and are kept apart here.

Experiments:
Assay in all cases: Drug-drug interaction, CYP inhibition in human liver microsomes, cocktail method
Format in all cases: in vitro ADME
CYP3A4 = CYP3A4 (Homo sapiens, UniProt P08684)
Procedure: (§1) The inhibitory effects of compounds on the activity of human liver microsomal cytochrome P450 isoenzymes (CYP1A2, CYP2C9, CYP2C19, CYP2D6, and CYP3A) were evaluated using a cocktail method with specific probe substrates for CYP1A2, CYP2C9, CYP2C19, CYP2D6, and CYP3A.
(§2) Human liver microsomes, probe substrates, positive control inhibitor, and reduced nicotinamide adenine dinucleotide phosphate.
(§3) 20 µL of a substrate solution was added to the corresponding well of a reaction plate, and 20 µL of potassium phosphate buffer was added to the blank wells.
(§4) 2 µL of a test compound working solution and positive control working solution were added to the corresponding wells, and 2 µL of solvent was added to the inhibitor-free wells and blank wells.
(§5) Human liver microsomal working solution was prepared, and 158 µL of human liver microsomal working solution was added to each well of the reaction plate.
(§6) The reaction plate was preheated at 37.0 °C for 10 minutes.
(§7) 20 µL of NADPH cofactor working solution was added to the reaction plate to initiate the reaction.
(§8) The mixture was mixed and incubated in a 37.0 °C water bath for 10 minutes, and 400 µL of stop solution was added to the reaction plate to terminate the reaction.
(§9) The sample plate was placed in a centrifuge, and centrifuged at 4000 rpm for 20 minutes.
(§10) 200 µL of supernatant was taken out, and appropriate 100 µL of pure water was added for dilution. The plate was shaken until the mixture was mixed well.
(§11) The analysis was performed using liquid chromatography-tandem mass spectrometry (LC-MS/MS).
(§12) The IC50 values of the assay samples were calculated by performing a three-parameter or four-parameter nonlinear regression analysis using XL fit software, with the remaining percentage of activity as the ordinate and the assay sample concentration as the abscissa. When the IC50 obtained by fitting with XL fit software was greater than the maximum administration concentration (50.0 µM) or IC50 could not be obtained by fitting, the IC50 value was marked as ">50.0 µM".
(§13) Three-parameter equation: y = (max)/(1 + (((x)/(IC50)))^−hillslope) [formula]
(§14) Four-parameter equation: y = min + (max−min)/(1 + (((x)/(IC50)))^−hillslope) [formula] max: maximum enzyme activity; min: minimum enzyme activity; x: concentration of the assay sample or positive control inhibitor; y: enzyme activity at the corresponding concentration; hillslope: slope; IC50: half-maximal inhibitory concentration; the four-parameter equation was used when the minimum enzyme activity was within ±10%, otherwise the three-parameter equation was used. Drug-drug interaction assay results of the compounds of the present disclosure

CYP2C19 = target: T1, CYP2C19 (Homo sapiens, UniProt P33261)
T1 construct: from tissue; host or cells: human liver microsomes
T1 sequence (P33261 whole entry): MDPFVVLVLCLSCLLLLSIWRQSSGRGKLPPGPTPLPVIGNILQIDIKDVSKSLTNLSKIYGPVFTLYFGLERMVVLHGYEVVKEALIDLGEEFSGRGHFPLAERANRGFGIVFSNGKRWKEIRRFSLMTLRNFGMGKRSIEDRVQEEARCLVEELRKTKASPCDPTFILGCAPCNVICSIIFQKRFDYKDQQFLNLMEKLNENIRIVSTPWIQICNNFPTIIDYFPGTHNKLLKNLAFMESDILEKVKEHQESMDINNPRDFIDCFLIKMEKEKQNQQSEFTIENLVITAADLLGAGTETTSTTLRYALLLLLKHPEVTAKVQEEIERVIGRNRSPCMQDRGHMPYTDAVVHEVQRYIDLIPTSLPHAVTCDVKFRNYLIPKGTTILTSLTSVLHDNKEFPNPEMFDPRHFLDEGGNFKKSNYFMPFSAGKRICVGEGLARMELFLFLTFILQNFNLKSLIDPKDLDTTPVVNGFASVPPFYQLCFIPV
Procedure: as §1, §2, §3, §4, §5, §6, §7, §8, §9, §10, §11, §12, §13, §14

CYP2D6 = target: T2, CYP2D6 (Homo sapiens, UniProt P10635)
T2 construct: from tissue; host or cells: human liver microsomes
T2 sequence (P10635 whole entry): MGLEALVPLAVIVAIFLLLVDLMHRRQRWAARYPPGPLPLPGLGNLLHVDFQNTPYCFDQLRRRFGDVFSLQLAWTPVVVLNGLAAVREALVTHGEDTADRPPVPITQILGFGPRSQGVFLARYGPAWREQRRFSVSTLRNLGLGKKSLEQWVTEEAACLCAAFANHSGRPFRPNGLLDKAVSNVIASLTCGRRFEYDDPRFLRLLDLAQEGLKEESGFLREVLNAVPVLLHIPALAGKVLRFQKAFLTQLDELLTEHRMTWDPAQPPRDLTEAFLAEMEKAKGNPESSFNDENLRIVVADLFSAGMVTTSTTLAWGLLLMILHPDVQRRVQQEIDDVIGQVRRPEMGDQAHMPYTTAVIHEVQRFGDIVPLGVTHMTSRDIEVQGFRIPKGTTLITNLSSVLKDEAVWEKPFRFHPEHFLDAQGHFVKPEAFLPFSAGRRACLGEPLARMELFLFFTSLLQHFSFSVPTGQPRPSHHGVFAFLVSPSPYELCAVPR
Procedure: as §1, §2, §3, §4, §5, §6, §7, §8, §9, §10, §11, §12, §13, §14

CYP2C9 = target: T3, CYP2C9 (Homo sapiens, UniProt P11712)
T3 construct: from tissue; host or cells: human liver microsomes
T3 sequence (P11712 whole entry): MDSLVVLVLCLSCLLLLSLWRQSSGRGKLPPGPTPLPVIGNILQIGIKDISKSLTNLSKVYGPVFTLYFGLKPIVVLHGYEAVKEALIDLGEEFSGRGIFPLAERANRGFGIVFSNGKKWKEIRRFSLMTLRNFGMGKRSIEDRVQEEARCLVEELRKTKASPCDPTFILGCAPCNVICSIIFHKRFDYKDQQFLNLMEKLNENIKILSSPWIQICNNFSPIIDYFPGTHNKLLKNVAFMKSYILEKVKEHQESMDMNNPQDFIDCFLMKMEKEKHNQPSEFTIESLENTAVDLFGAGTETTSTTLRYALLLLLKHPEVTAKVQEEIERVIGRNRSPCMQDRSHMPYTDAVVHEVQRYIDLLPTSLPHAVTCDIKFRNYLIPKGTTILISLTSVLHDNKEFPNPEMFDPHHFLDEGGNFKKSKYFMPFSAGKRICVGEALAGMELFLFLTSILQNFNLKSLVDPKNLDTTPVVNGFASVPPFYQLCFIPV
Procedure: as §1, §2, §3, §4, §5, §6, §7, §8, §9, §10, §11, §12, §13, §14

CYP1A2 = target: T4, CYP1A2 (Homo sapiens, UniProt P05177)
T4 construct: from tissue; host or cells: human liver microsomes
T4 sequence (P05177 1-516): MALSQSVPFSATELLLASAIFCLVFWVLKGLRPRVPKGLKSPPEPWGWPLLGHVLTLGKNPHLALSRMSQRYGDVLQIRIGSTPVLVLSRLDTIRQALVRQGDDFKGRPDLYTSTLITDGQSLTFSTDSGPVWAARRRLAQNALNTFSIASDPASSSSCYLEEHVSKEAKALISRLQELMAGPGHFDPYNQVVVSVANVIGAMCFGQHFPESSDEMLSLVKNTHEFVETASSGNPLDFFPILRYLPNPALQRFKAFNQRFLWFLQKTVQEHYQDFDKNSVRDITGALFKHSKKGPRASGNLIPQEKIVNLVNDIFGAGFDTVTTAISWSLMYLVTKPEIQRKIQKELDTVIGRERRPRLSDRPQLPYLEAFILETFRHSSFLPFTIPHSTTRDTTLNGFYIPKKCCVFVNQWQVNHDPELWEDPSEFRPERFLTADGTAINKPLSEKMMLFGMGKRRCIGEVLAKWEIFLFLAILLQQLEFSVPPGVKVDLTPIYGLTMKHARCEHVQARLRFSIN
Procedure: as §1, §2, §3, §4, §5, §6, §7, §8, §9, §10, §11, §12, §13, §14

[1] = human liver microsomes, maximum concentration 50.0 µM, read-out: CYP 3A4 (IC50)
[2] = human liver microsomes, maximum concentration 50.0 µM, read-out: CYP 2C19 (IC50)
[3] = human liver microsomes, maximum concentration 50.0 µM, read-out: CYP 2D6 (IC50)
[4] = human liver microsomes, maximum concentration 50.0 µM, read-out: CYP 2C9 (IC50)
[5] = human liver microsomes, maximum concentration 50.0 µM, read-out: CYP 1A2 (IC50)

Chain of CYP3A4 (P08684 2-503): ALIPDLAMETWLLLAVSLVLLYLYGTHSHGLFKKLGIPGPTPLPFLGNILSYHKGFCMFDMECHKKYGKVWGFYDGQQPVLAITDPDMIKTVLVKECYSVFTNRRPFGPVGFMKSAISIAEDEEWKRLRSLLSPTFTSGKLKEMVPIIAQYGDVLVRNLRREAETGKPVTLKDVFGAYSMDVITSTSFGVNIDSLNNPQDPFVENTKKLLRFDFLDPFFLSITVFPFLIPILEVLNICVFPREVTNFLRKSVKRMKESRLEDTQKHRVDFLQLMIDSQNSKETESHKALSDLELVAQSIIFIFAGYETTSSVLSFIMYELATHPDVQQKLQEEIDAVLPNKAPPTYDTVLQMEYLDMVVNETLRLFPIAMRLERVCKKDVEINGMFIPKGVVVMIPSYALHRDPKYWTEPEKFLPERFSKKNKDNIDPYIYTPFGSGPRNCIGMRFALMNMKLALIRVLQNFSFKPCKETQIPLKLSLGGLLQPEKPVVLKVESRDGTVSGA

Structure (SMILES) | IC50 at 10 min (CYP3A4; [1]) [µM] | IC50 (CYP2C19; [2]) [µM] | IC50 (CYP2D6; [3]) [µM] | IC50 (CYP2C9; [4]) [µM] | IC50 (CYP1A2; [5]) [µM] | IC50 at 10 min (CYP3A4; human, microsomes) [µM] | IC50 (CYP2C19) [µM] | IC50 (CYP2D6) [µM] | IC50 (CYP2C9) [µM] | IC50 (CYP1A2) [µM]
CC(C)(C)CC(=O)Nc1nc2c(F)cc(C#N)cn2c1C12CC(C1)C2 [Compound 5] | > 50 | > 50 | > 50 | > 50 | > 50 |  |  |  |  | 
CC(C)(C)CC(=O)Nc1nc2c(C(F)(F)F)cc(C#N)cn2c1C12CC(C1)C2 [Compound 6] | > 50 | > 50 | > 50 | > 50 | > 50 |  |  |  |  | 
CC(C)(C)CC(=O)Nc1nc2c(F)cc(C#N)cn2c1C1=CCCC1 [Compound 3] | > 50 | > 50 | > 50 | > 50 | > 50 |  |  |  |  | 
CC(C)(C)CC(=O)Nc1nc2c(F)cc(C#N)cn2c1-c1ccc(OC(F)(F)F)cc1 [Compound 1] |  |  |  |  |  | 14 | 31 | 42 | 46 | > 50
